The text below walks through data of patent US8883792B2, “Substituted isoquinoline derivative” (D. Western Therapeutics Institute, Inc., priority 2010, dated 2014).

Structures can show the parent of a compound that is named as a salt.

The subject of this test is rabbits (New Zealand White). As to the kind of experiment: Ocular hypotensive effect in rabbits. Format: in vivo, rabbit. The conditions noted are these: male New Zealand White rabbits, 0.04 mL eye drop, concentration of 1% (w/v) or lower, maximum ocular hypotensive rate vs vehicle-treated contralateral eye. As for the experimental part: The compound of the present invention was administered to rabbits (New Zealand White, sex: male, 3 to 6 per group) and evaluated for its ocular hypotensive effect.
Each test compound was dissolved in a vehicle 1 (1.04 g of sodium dihydrogen phosphate dihydrate and 0.5 g of sodium chloride dissolved in purified water and then adjusted to pH 7.0 with sodium hydroxide to make the total amount to 100 mL) or a vehicle 2 (2% (w/v) aqueous boric acid solution) to prepare a test compound solution with a predetermined concentration.
The intraocular pressures of the rabbits were measured using Tiolat TonoVet handheld tonometer immediately before administration of test compound. The test compound solution and the vehicle were dropped at a volume of 0.04 mL to one eye and the contralateral eye, respectively, and the intraocular pressures were measured over time in the same way as above. The rate of the intraocular pressure of the eye receiving the test compound solution to that of the eye receiving the vehicle was calculated as an ocular hypotensive rate.
Consider `C[C@H](CNCCc1nnn[nH]1)NS(=O)(=O)c1ccc2cnccc2c1` [Example 95, (R)—N-[1-{2-(1H-tetrazol-5-yl)ethylamino}propan-2-yl]isoquinoline-6-sulfonamide dihydrochloride], for which the Ocular hypotensive activity entry was “+ (maximum ocular hypotensive rate of 5% or more and less than 15%)”.
Take `C[C@H](CNCCc1ccnc2ccccc12)NS(=O)(=O)c1ccc2cnccc2c1.Cl` [Example 65]: the Ocular hypotensive activity entry was “+ (maximum ocular hypotensive rate of 5% or more and less than 15%)”.
For the compound `C=CCNC[C@@H](C)NS(=O)(=O)c1ccc2cnccc2c1` [Example 9, (R)—N-{1-(allylamino)propan-2-yl}isoquinoline-6-sulfonamide dihydrochloride], the Ocular hypotensive activity entry is reported as “++ (maximum ocular hypotensive rate of 15% or more)”.
Take `CCCCNC[C@H](C)NS(=O)(=O)c1ccc2cnccc2c1` [Example 6, (S)—N-{1-(butylamino)propan-2-yl}isoquinoline-6-sulfonamide dihydrochloride]: the Ocular hypotensive activity result was “++ (maximum ocular hypotensive rate of 15% or more)”.
On to `C=C(C)CNC[C@@H](C)NS(=O)(=O)c1ccc2cnccc2c1.Cl` [Example 78, (R)—N-{1-(2-methylallylamino)propan-2-yl}isoquinoline-6-sulfonamide hydrochloride], for which the Ocular hypotensive activity entry is given as “++ (maximum ocular hypotensive rate of 15% or more)”.
With `C[C@H](CNCCc1ccc(-c2ccncc2)cc1)NS(=O)(=O)c1ccc2cnccc2c1` [Example 93, (R)—N-[1-{4-(pyridin-4-yl)phenethylamino}propan-2-yl]isoquinoline-6-sulfonamide trihydrochloride] the entry was “++ (maximum ocular hypotensive rate of 15% or more)”; with `C#CCNC[C@@H](C)NS(=O)(=O)c1ccc2cnccc2c1` [Example 47, (R)—N-{1-(prop-2-yn-1-ylamino)propan-2-yl}isoquinoline-6-sulfonamide dihydrochloride], “++ (maximum ocular hypotensive rate of 15% or more)”.
As for `CC=CCNC[C@@H](C)NS(=O)(=O)c1ccc2cnccc2c1` [Example 7, (R)—N-{1-(but-2-enylamino)propan-2-yl}isoquinoline-6-sulfonamide dihydrochloride], the entry is “++ (maximum ocular hypotensive rate of 15% or more)”; as for `C[C@H](CNCCc1ccc(-c2ccccc2)cc1)NS(=O)(=O)c1ccc2cnccc2c1` [Example 92, (R)—N-[1-{2-(biphenyl-4-yl)ethylamino}propan-2-yl]isoquinoline-6-sulfonamide dihydrochloride], “++ (maximum ocular hypotensive rate of 15% or more)”; as for `C[C@H](CNCCn1cncn1)NS(=O)(=O)c1ccc2cnccc2c1.Cl` [Example 68, (R)—N-[1-{2-(1H-1,2,4-triazol-1-yl)ethylamino}propan-2-yl]isoquinoline-6-sulfonamide hydrochloride], “+ (maximum ocular hypotensive rate of 5% or more and less than 15%)”.
As for `C[C@@H](CNCCc1ccccc1)NS(=O)(=O)c1ccc2cnccc2c1` [Example 24, (S)—N-{1-(phenethylamino)propan-2-yl}isoquinoline-6-sulfonamide dihydrochloride], the entry is “++ (maximum ocular hypotensive rate of 15% or more)”.
For `C[C@H](CNCCc1ccccc1Cl)NS(=O)(=O)c1ccc2cnccc2c1` [Example 38, (R)—N-{1-(2-chlorophenethylamino)propan-2-yl}isoquinoline-6-sulfonamide dihydrochloride], the Ocular hypotensive activity result is “++ (maximum ocular hypotensive rate of 15% or more)”.
Turning to `C[C@H](CNCC(O)COc1ccccc1)NS(=O)(=O)c1ccc2cnccc2c1` (stereo partly drawn) [Example 108, N-{(2R)-1-(2-hydroxy-3-phenoxypropylamino)propan-2-yl}isoquinoline-6-sulfonamide dihydrochloride], the Ocular hypotensive activity entry is “++ (maximum ocular hypotensive rate of 15% or more)”.
As for `CCCNCC[C@@H](C)NS(=O)(=O)c1ccc2cnccc2c1` [Example 12, (R)—N-{4-(propylamino)butan-2-yl}isoquinoline-6-sulfonamide dihydrochloride], the Ocular hypotensive activity entry is “++ (maximum ocular hypotensive rate of 15% or more)”.
As for `C[C@H](CNCCc1ccccc1F)NS(=O)(=O)c1ccc2cnccc2c1` [Example 31, (R)—N-{1-(2-fluorophenethylamino)propan-2-yl}isoquinoline-6-sulfonamide dihydrochloride], the entry is “++ (maximum ocular hypotensive rate of 15% or more)”; as for `C[C@H](CNCCc1cc2ccccc2[nH]1)NS(=O)(=O)c1ccc2cnccc2c1.Cl` [Example 74, (R)—N-[1-{2-(1H-indol-2-yl)ethylamino}propan-2-yl]isoquinoline-6-sulfonamide hydrochloride], “++ (maximum ocular hypotensive rate of 15% or more)”.
With `C[C@H](CNCCc1ccc(C(F)(F)F)cc1)NS(=O)(=O)c1ccc2cnccc2c1.Cl` [Example 60, (R)—N-{1-(4-trifluoromethylphenethylamino)propan-2-yl}isoquinoline-6-sulfonamide hydrochloride] the entry was “++ (maximum ocular hypotensive rate of 15% or more)”; with `C[C@H](CNCCc1cccc(Cl)c1)NS(=O)(=O)c1ccc2cnccc2c1` [Example 54, (R)—N-{1-(3-chlorophenethylamino)propan-2-yl}isoquinoline-6-sulfonamide hydrochloride], “++ (maximum ocular hypotensive rate of 15% or more)”.
With `C[C@H](CNCCc1ccccc1)NS(=O)(=O)c1ccc2c(N)nccc2c1.Cl` [Example 109, (R)-1-amino-N-{1-(phenethylamino)propan-2-yl}isoquinoline-6-sulfonamide hydrochloride] the entry was “+ (maximum ocular hypotensive rate of 5% or more and less than 15%)”.
Consider `C[C@H](CNCCC#N)NS(=O)(=O)c1ccc2cnccc2c1.Cl` [Example 73, (R)—N-{1-(2-cyanoethylamino)propan-2-yl}isoquinoline-6-sulfonamide hydrochloride], for which the Ocular hypotensive activity entry was “++ (maximum ocular hypotensive rate of 15% or more)”.
With `C[C@H](CNCCc1ccc(N(C)C)cc1)NS(=O)(=O)c1ccc2cnccc2c1.Cl` [Example 71, (R)—N-{1-(4-dimethylaminophenethylamino)propan-2-yl}isoquinoline-6-sulfonamide hydrochloride] the entry was “++ (maximum ocular hypotensive rate of 15% or more)”; with `C[C@H](CNCCc1cccnc1)NS(=O)(=O)c1ccc2cnccc2c1.Cl` [Example 49, (R)—N-[1-{2-(pyridin-3-yl)ethylamino}propan-2-yl]isoquinoline-6-sulfonamide hydrochloride], “++ (maximum ocular hypotensive rate of 15% or more)”; with `C[C@H](CNC1CC1)NS(=O)(=O)c1ccc2cnccc2c1` [Example 15, (R)—N-{1-(cyclopropylamino)propan-2-yl}isoquinoline-6-sulfonamide dihydrochloride], “++ (maximum ocular hypotensive rate of 15% or more)”.
`COc1cccc(CCNC[C@@H](C)NS(=O)(=O)c2ccc3cnccc3c2)c1` [Example 29, (R)—N-{1-(3-methoxyphenethylamino)propan-2-yl}isoquinoline-6-sulfonamide dihydrochloride]: the Ocular hypotensive activity result is given as “++ (maximum ocular hypotensive rate of 15% or more)”.
